Experimental data: patent US11142550B2, “Split inteins with exceptional splicing activity” (THE TRUSTEES OF PRINCETON UNIVERSITY, priority 2016, dated 2021)
“Also recorded” adds a separate entry of the source.

Key:
Cfa^C-CFN = experiment: protein trans-splicing of extracted inclusion body under denaturing conditions; format: biochemical; conditions: extracted from inclusion bodies with 6M urea
Procedure: E. coli inclusion bodies containing His6-Sumo-Cfa^N expression (plasmid 20) were resuspended and extracted overnight at 4° C. in lysis buffer containing 6M urea. Following centrifugation (35,000 rcf, 30 min), the supernatant was removed and the protein enriched by Ni-NTA under denaturing conditions (as described above). However, instead of refolding the protein, trans-splicing was directly initiated by the addition of Cfa^C-CFN (10 μM Cfa^C, 2 mM TCEP, 2 mM EDTA, 2 hrs, RT). Reaction progress was monitored by SDS-PAGE.

[1] = tested on: split intein constructs with short native extein sequences; conditions: 30° C.; cited from earlier work
[2] = tested on: split intein constructs with short native extein sequences; experiment: in vitro protein trans-splicing (PTS) assay, RP-HPLC / ESI-MS kinetics; format: biochemical
Description: Thus, attention was focused on ‘second shell’ residues, those directly adjacent to the active site. To simplify this analysis, a batch mutagenesis strategy was employed in conjunction with a previously reported in vitro PTS assay.^5 This assay uses split intein constructs with short native extein sequences and allows the rates of branched intermediate formation (k1,k2) and its resolution to final splice products (k3) to be determined using a three state kinetic model.
Splicing reactions were carried out as adapted from a previously described protocol. Briefly, N- and C-inteins (15 μM Int^N, 10 μM Int^C) were individually preincubated in splicing buffer (100 mM sodium phosphates, 150 mM NaCl, 1 mM EDTA, pH 7.2) with 2 mM TCEP for 15 minutes. All splicing reactions were carried out at 30° C. unless otherwise indicated. Splicing reactions comparing the tolerance of Npu and Cfa to chaotropic agents were carried out with the indicated concentration of either Urea or guanidine hydrochloride. Splicing was initiated by mixing equal volumes of N- and C-inteins with aliquots removed at the indicated times and quenched by the addition of 8M guanidine hydrochloride, 4% TFA (3:1 v/v). For all splicing reactions containing either Npu^C-CFN or Cfa^C-CFN, reaction progress was monitored by RP-HPLC. […] (15 minute preincubation) were both observed to be inefficient, reaching ˜50% completion. This is likely due to aggregation (and inactivation) of the N-intein. Note, shorter preincubations of Cfa at 80° C. led to more efficient splicing.
Kinetic analysis was carried out as previously described.^1 Briefly, five species (1-5) are separated by RP-HPLC, and peak areas are determined. For ESI-MS, peak areas are calculated for species 1-4. Each individual peak was normalized against the total area of all peaks combined and reaction progress curves were plotted (n=3). The data were then fit in ProFit to the analytical solution to the coupled differential rate equation for the three state kinetic splicing model. Because the starting material cannot be separated from the linear thioester using this assay, the three state kinetic model collapses the binding step and the first two steps of the splicing reaction into one equilibrium. Each splicing reaction was carried out in triplicate with each replicate analyzed separately. The mean and standard deviation for all values (n=3) are reported.
All splicing reactions comparing Npu and Cfa were separated by RP-HPLC with peak areas once again calculated using the manufacturer's software. For these reactions, peak areas for the starting material and branched intermediate (species 1 and 2) and product (species 3, 4, 5) were calculated. The data was then fit to the first order rate equation using the GraphPad Prism software. [P](t)=[P]max·(1−e^−kt)
Where [P] is the normalized intensity of product, [P]max is this value at t=∞ (the reaction plateau), and k is the rate constant (s^−1). The mean and standard deviation (n=3) are reported.

[3] = tested on: split aminoglycoside phosphotransferase (KanR) in E. coli; experiment: protein splicing coupled kanamycin resistance (Kan^R) assay; format: cell-based; conditions: +2 position of the C-extein
Procedure: The protein splicing coupled kanamycin resistance (Kan^R) assay was carried out as previously described.^2,9 Briefly, a plasmid coding for a fragmented aminoglycoside phosphotransferase fused to a split intein (Cfa) with either F, G, R, or E present at the +2 position of the C-extein (plasmids 22-25) was transformed into DH5α competent cells and grown in starter cultures overnight (LB Broth, 100 μg/mL ampicillin, 18 hrs). These cultures were then diluted twenty-fold into a 96 well plate, and E. coli growth was measured at various concentrations of kanamycin (2.5, 10, 25, 50, 100, 250, 1000 μg/mL kanamycin with 100 μg/mL ampicillin). The cell optical density at 650 nm (OD650) at the 24-hour end point was fit to a dose response curve with variable slope.
Where ODmin was fixed to background absorbance at 650 nm. Each assay was carried out in triplicate, fit separately, and IC50 values are reported as the mean and standard deviation of IC50 for these three separate measurements.
The kanamycin resistance protein, KanR, is split and fused to N- and C-intein fragments (Cfa^N and Cfa^C). The +2 C-extein residue (red X) is varied in the system. In Panel B, IC50 values for kanamycin resistance of the CfaEKD (WT) and CfaGEP (GEP) inteins with indicated +2 C-extein residue are shown (error=standard error (n=3)).

[4] = refolding of N-inteins by stepwise dialysis; format: physicochemical; conditions: stepwise dialysis into lysis buffer, 4° C.
Procedure: The N-inteins were refolded by stepwise dialysis into lysis buffer with 0.5 mM DTT at 4° C. This refolded protein was then treated with 10 mM TCEP and Ulp1 protease (overnight, RT) to cleave the His6-SUMO expression tag. The solution was then mixed with 4 mL Ni-NTA resin and incubated for 30 minutes at 4° C. The slurry was applied to a fritted column and the flow through was collected together with a 3 CV wash with lysis buffer. The protein was then treated with 10 mM TCEP, concentrated to 10 mL, and further purified by size exclusion chromatography using an S75 16/60 gel filtration column employing degassed splicing buffer (100 mM sodium phosphate, 150 mM NaCl, 1 mM EDTA, pH 7.2) as the mobile phase. Fractions were analyzed by SDS-PAGE, analytical RP-HPLC, and ESI-MS. Pure protein was stored by flash-freezing in liquid N2 following the addition of glycerol (20% v/v).

Cfa^N fusion: model fusion protein His6-SUMO-AEY-Cfa^N; plasmid 20, SEQ ID NO: 381
modification by PTS without refolding (Cfa^C-CFN): efficiently, modified by PTS

Npu: DnaE split intein from Nostoc punctiforme PCC73102; SEQ ID NO: 5 and 6 [reference compound]
rate of protein trans-splicing (PTS), t1/2 [1]: 50 s | splicing in urea ([2]; 8M urea): inactive | splicing activity at 80° C. ([2]; 80° C.): inactive | splicing in urea ([2]; above 4M urea): falls off dramatically | splicing activity in GuHCl ([2]; ≥3M GuHCl (3M in FIG. 2 legend)): no activity was observed; also recorded: inactive

Cfa: consensus fast DnaE split intein; Cfa^N SEQ ID NO: 2, Cfa^C SEQ ID NO: 3
splicing rate constant k (residual activity) ([2]; 4M GuHCl): 7e-05 s⁻¹ | splicing in urea ([2]; 8M urea): largely unaffected | branch formation rate, increase over Npu ([2]; 30° C., relative to Npu): 3 fold | branch resolution rate, increase over Npu ([2]; 30° C., relative to Npu): 2 fold | splices faster than Npu ([2]; 30° C., relative to Npu): 2.5 fold | splicing activity at 80° C. ([2]; 80° C.): maintains activity at 80° C., albeit with reduced yield of splice products | splicing completion ([2]; 80° C., 15 minute preincubation): ~50% | GuHCl concentration up to which the intein splices ([2]; guanidine hydrochloride added): up to 4 M | splicing activity in GuHCl ([2]; up to 3M GuHCl): little decrease in activity | C-extein +2 residue preference [3]: retains the preference for a bulky hydrophobic residue

A136S: A136S point mutant on the Ssp^C intein; plasmid 19, SEQ ID NO: 379 [Compound A136S]
effect of mutation on branch formation ([2]; mutation on Ssp^C): no impact | effect of mutation on rate of branch resolution ([2]; mutation on Ssp^C): two fold

Batch 3: Ssp^N batch mutant (S23E, E24K, E25R, N27E); plasmid 13, SEQ ID NO: 373
splicing completion ([2]; 30° C.): ~50% | precipitation during the refolding step [4]: significant protein precipitation was observed
